From ChEMBL document CHEMBL1201862, “PubChem BioAssay data set” (2004)
Active and inactive are the calls of the source.

Legend:
[1] = cells; type: functional
[2] = C. albicans growth with fluconazole, confirmation, fluorescence, retest (AID 2467); type: functional, cell-based
[3] = cytotoxicity in KRAS-transformed pancreatic duct cells, primary screen, cell-based, fluorescence, HTS (AID 431); type: functional; conditions: Homo sapiens;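 also: cell line used: HPDE-C7K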
[4] = inhibitors of PGC1a acetylation in cells, dose response, cell-based, cherry-picked samples (AID 720514); type: functional;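 also: potency may reflect raised or lowered acetylation signal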
[5] = growth suppression of beta-catenin-knockout colon cells, dose response, cell-based, HCT116, human colon tumor (AID 1045); type: functional;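 also: HCT116 colon tumor cells with beta catenin knocked out; cells exposed to compound for 60 hours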
[6] = NIH-3T3 fibroblast cytotoxicity, dose response, cytotoxicity control, cell-based, fluorescence, Alamar Blue, secondary assay (AID 2327); type: functional;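 also: NIH-3T3 mouse fibroblasts cultured with fluconazole at 8 µg/mL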
[7] = growth suppression of PTEN-null colon cells, dose response, cell-based, HCT116 PTEN knockout (AID 1047); type: functional;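 also: HCT116 colon tumor cells with PTEN knocked out; cells exposed to compound for 60 hours before readout; potency for loss of cell viability measured by luminescence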
[8] = HepG2 cell cytotoxicity, dose response, cytotoxicity control for non-replicating M. tuberculosis project (AID 489018); type: functional; conditions: Mycobacterium tuberculosis
[9] = cytotoxicity in HPDE-C7 cells, cell-based, fluorescence, HTS (AID 430); type: functional; conditions: Homo sapiens
[10] = system: A-375; assay: MITF: Counter assay: A375 proliferation Measured in Cell-Based System Using Plate Reader - 2084-03_Inhibitor_Dose_DryPowder_Activity. [Related pubchem assays (depositor defined):AID488944]; type: functional; conditions: Homo sapiens
[11] = system: A-375; assay: A375 melanoma cell viability reduction, dose response, counter-screen for MITF modulator project, cherry-pick samples, set 2 (AID 540335); type: functional, cell-based; conditions: Homo sapiens
[12] = Vero E6 cell cytotoxicity, dose response, cytotoxicity control for non-replicating M. tuberculosis project, secondary assay (AID 492998); type: functional, VeroE6; conditions: Vero C1008
[13] = target: T1, Microphthalmia-associated transcription factor (Homo sapiens, UniProt O75030); assay: TRPM1 promoter luciferase signal decrease, dose response, MITF inhibitor project, cell-based, SK-MEL-5, cherry-picked, set 3 (AID 493073); type: functional
T1 sequence (O75030 whole entry): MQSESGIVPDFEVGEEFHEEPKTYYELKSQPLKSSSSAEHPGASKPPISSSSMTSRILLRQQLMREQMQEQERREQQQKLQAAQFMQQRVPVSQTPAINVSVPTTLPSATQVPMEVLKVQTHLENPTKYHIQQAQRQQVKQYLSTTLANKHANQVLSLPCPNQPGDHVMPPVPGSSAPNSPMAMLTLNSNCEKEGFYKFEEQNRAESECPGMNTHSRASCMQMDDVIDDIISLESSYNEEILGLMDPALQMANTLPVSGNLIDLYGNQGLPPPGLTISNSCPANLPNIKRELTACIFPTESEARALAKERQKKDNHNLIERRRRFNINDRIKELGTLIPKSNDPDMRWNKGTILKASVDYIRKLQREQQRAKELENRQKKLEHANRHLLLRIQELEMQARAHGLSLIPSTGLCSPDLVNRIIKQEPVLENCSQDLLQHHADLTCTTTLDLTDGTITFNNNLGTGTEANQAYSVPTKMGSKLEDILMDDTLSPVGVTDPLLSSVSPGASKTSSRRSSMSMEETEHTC

[14] = THP-1 cell cytotoxicity, dose response, cytotoxicity control for non-replicating M. tuberculosis project (AID 489025); type: functional
[15] = system: H4; assay: Inhibitors of Prion Protein 5' UTR mRNA Measured in Cell-Based System Using Plate Reader - 2078-01_Inhibitor_Dose_DryPowder_Activity. [Related pubchem assays (depositor defined):AID488894]; type: functional; conditions: Homo sapiens
[16] = A549 cell cytotoxicity, dose response, cytotoxicity control, plate reader, cherry-pick, antagonist series (AID 743412); type: functional, cell-based
[17] = off-target signal loss in HeLa-CEM21 co-culture – HeLa F-luc CTL cells, cherry-picked, counter-screen for HIV-1 Env fusion inhibitor project, dose response (AID 652040); type: functional, cell-based;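 also: potency for signal decrease marking cytotoxic or nonspecific inhibition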
[18] = ZM109 Env clade C HIV-1 fusion inhibitors, dose response, HeLa effector, CEM target cells, luciferase, cherry-pick (AID 652058); type: functional, cell-based
[19] = inhibitors of HIV Env-driven cell fusion, dose response, cherry-pick (AID 652057); type: functional, cell-based
[20] = system: H4; assay: inhibitors of control reporter signal in H4 cells – cell-based, plate reader, dry powder samples, counter-screen for prion reporter project, dose response (AID 540255); type: functional; conditions: Homo sapiens
[21] = MC4R antagonists, dose response, counter-screen for LGR2 antagonist project, cell-based, plate reader, cherry pick (AID 743444); type: functional;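 also: transfected HEK 293 cells stimulated with alpha-MSH peptide; potency of inhibitors of the alpha-MSH evoked signal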
[22] = system: Jurkat; assay: antigen receptor-induced NF-kB inhibitors, dose response, Jurkat, luciferase reporter, luminescence, B- and T-cell (AID 489004); type: functional, cell-based; conditions: Homo sapiens;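 also: NF-kB luciferase reporter Jurkat cells stimulated with PMA plus ionomycin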
[23] = cytotoxicity in HEK-293T NF-kB-Luc cells, dose response, cytotoxicity control for B/T-cell NF-kB inhibitor project, cell-based, uHTS hits (AID 489019); type: functional;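 also: IC50 reflects cytotoxicity as loss of cell viability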
[24] = inhibitors of clade B AD8 Env fusion, dose response, cell-based, cherry-pick (AID 652062); type: functional;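 also: luciferase signal from cell-cell fusion driven by HIV-1 clade B AD8 Env; potency is for inhibitors of fusion seen as a drop in luminescence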
[25] = LGR2 antagonists, dose response, cell-based, HEK293, CRE-luciferase reporter, cherry pick, set 2 (AID 743343); type: functional;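 also: transfected cells were stimulated with diluted bursicon conditioned medium after compound addition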
[26] = nonselective inhibitors of cellular cAMP signaling, dose response, counter-screen for MC4R biased antagonist project, cell-based, TR-FRET cAMP detection (AID 602305); type: functional;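 also: U2OS cells stimulated with forskolin near its EC80 as the cAMP inducer; potency is for inhibition of forskolin-stimulated cAMP signaling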
[27] = control 3'UTR Renilla luciferase suppression, dose response, counter-screen for Shn3 inhibitor project, cell-based, Clone20-Shn3RL, cherry-picked (AID 624133); type: functional
[28] = target: Beta Lactamase (Pseudomonas aeruginosa, UniProt Q932Y6); assay: beta-lactamase reporter inhibitor potency, dose response, artefact control for TLR9-MyD88 binding inhibitor project, BLA reporter cells, FRET fluorescence (AID 588341); type: cell-based;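 also: cell based assay in CHO-K1 cells stably expressing beta-lactamase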
[29] = target: Beta-galactosidase (Escherichia coli, UniProt Q8VNN2); assay: PubChem AID 485352; type: functional
[30] = system: CHO; assay: cytotoxicity in TLR9-MyD88 CHO cells, dose response, cytotoxicity control for TLR9-MyD88 binding inhibitor project, cell-based, luminescence (AID 588339); type: functional, hamster; conditions: Cricetulus griseus;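 also: CHO cells stably coexpressing TLR9 and MyD88 fusions from primary screen; compound exposure lasted 48 hours before viability readout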
[31] = target: T2, Fatty acid synthase (Homo sapiens, UniProt P49327); assay: FAS thioesterase domain inhibitors, dose response, biochemical, kinetic fluorescence intensity (AID 624326); type: functional;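 also: rate of fluorescence rise from hydrolysis of a fluorogenic O-methyl fluorescein ester substrate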
[32] = target: E3 ubiquitin-protein ligase Mdm2 (Homo sapiens, UniProt Q00987); assay: enhancers of MDM2-luciferase reporter signal, concentration-effect titration, project on inhibitors of MDM2 ubiquitin ligase, cellular assay, luminescent readout, 384-well plate format (AID 1394); type: functional;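 also: MDM2 E3 inhibitors raise luminescence so EC50 is for signal enhancement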
[33] = Shn3 3'UTR reporter inhibitors, dose response, cell-based, Clone20 osteoblasts, firefly luciferase, cherry-picked (AID 624132); type: functional;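 also: firefly luciferase luminescence from reporter carrying the Shn3 3'UTR in osteoblasts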
[34] = target: Heat shock protein HSP 90-alpha (Homo sapiens, UniProt P07900); type: functional, organism-based
[35] = target: T3, Rac GTPase-activating protein 1 (Homo sapiens, UniProt Q9H0H5); assay: MgcRacGAP GTPase-activating activity inhibitors, confirmation, biochemical, ADP Hunter fluorescence, primary and confirmatory (AID 624330); type: functional
T3 sequence (Q9H0H5 whole entry): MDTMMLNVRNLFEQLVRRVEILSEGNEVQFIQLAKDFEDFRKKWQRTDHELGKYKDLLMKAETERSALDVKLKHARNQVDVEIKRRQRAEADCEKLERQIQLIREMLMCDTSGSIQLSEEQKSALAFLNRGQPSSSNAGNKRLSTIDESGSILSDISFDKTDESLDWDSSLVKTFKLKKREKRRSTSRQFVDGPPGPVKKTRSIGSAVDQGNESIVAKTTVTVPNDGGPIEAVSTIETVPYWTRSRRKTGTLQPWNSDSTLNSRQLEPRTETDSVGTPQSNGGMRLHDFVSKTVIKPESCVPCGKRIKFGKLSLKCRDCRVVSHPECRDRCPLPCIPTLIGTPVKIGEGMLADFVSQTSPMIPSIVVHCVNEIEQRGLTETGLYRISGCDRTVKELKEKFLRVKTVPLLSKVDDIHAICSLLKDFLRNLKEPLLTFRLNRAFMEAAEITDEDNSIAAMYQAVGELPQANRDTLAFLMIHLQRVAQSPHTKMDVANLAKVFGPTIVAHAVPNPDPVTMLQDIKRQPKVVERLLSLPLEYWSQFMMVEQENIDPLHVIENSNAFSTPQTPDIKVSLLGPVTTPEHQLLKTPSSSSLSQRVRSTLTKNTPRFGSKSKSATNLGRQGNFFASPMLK

[36] = cytotoxicity in HEK-293T cells, dose response, cytotoxicity control for TCR NF-kB inhibitor project, luminescence, T-cell screen hits (AID 489026); type: functional, cell-based;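 also: cells exposed to compound about 14 hours before the viability readout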
[37] = target: T4, Type-1 angiotensin II receptor (Homo sapiens, UniProt P30556); assay: AT1 receptor antagonists, dose response, selectivity assay for APJ receptor antagonist project, cell-based, uHTS hits (AID 463214); type: functional;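 also: antagonist potency against angiotensin II stimulated AT1 response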
T4 sequence (P30556 whole entry): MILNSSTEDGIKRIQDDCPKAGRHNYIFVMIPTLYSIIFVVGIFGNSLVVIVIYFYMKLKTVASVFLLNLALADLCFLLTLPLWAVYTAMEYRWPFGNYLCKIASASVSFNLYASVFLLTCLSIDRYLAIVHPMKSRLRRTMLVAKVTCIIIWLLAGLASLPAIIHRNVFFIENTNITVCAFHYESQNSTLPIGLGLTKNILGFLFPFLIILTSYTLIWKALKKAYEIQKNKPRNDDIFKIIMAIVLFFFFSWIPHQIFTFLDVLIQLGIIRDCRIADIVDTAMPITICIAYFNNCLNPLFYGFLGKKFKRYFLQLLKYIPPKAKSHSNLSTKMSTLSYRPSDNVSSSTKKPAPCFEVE

[38] = target: Melanocortin receptor 4 (Homo sapiens, UniProt P32245); assay: MC4R antagonist potency on cAMP, dose response, cell-based, TR-FRET, biased antagonists (AID 602298); type: functional;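 also: antagonist potency against agonist-stimulated cAMP production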
[39] = HeLa cell cytotoxicity, dose response, cytotoxicity control for MgcRacGAP inhibitor project (AID 624300); type: functional
[40] = target: T2, Fatty acid synthase; assay: FAS thioesterase domain inhibitors, dose response, biochemical, endpoint fluorescence intensity, uHTS hits (AID 624327); type: functional;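 also: fluorescence from hydrolysis of an O-methyl fluorescein acyl ester substrate by the enzyme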
[41] = system: HEK293; assay: cytotoxicity in HEK293T NF-kB-Luc cells, SAR follow-up, cytotoxicity control for NF-kB activator project, cell-based, resazurin fluorescence (AID 493251); type: functional; conditions: Homo sapiens
[42] = system: HEK293; assay: SAR Analysis of small molecule inhibitors of T-cell specific antigen receptor-induced NF-kB activation in a HEK-293T cell line using a luminescence assay - Set 2. [Related pubchem assays (depositor defined):AID435003, AID435012, AID489026]; type: functional, cell-based; conditions: Homo sapiens
[43] = cytotoxicity in HEK-293T cells, dose response, cytotoxicity control for BCR NF-kB inhibitor project, luminescence, B-cell screen hits (AID 489021); type: functional, cell-based;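 also: HEK-293T cells carrying an NF-kB luciferase reporter; cells exposed to compound for about 14 hours before viability readout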
[44] = system: Jurkat; assay: SAR Analysis of small molecule inhibitors of T-cell specific antigen receptor-induced NF-kB activation in a Jurkat cell line using a luminescence assay - Set 2. [Related pubchem assays (depositor defined):AID435003, AID435012, AID465]; type: functional, cell-based; conditions: Homo sapiens
[45] = target: Dual specificity tyrosine-phosphorylation-regulated kinase 1A (Rattus norvegicus, UniProt Q63470); type: biochemical, Homo sapiens
[46] = target: Dual specificity protein kinase CLK1 (Homo sapiens, UniProt P49759); assay: CLK1 kinase inhibitors, off-target check, dose response, selectivity assay for Dyrk1A inhibitor project, biochemical, cherry-picked samples (AID 588811)
[47] = target: DNA topoisomerase (Yersinia pestis, UniProt A0A2S9PM60); assay: Y. pestis Topo-I inhibitors, cleavage product readout, dose response, biochemical, cherry-pick (AID 588525)

T2 sequence (P49327 whole entry, the tested form may be a part): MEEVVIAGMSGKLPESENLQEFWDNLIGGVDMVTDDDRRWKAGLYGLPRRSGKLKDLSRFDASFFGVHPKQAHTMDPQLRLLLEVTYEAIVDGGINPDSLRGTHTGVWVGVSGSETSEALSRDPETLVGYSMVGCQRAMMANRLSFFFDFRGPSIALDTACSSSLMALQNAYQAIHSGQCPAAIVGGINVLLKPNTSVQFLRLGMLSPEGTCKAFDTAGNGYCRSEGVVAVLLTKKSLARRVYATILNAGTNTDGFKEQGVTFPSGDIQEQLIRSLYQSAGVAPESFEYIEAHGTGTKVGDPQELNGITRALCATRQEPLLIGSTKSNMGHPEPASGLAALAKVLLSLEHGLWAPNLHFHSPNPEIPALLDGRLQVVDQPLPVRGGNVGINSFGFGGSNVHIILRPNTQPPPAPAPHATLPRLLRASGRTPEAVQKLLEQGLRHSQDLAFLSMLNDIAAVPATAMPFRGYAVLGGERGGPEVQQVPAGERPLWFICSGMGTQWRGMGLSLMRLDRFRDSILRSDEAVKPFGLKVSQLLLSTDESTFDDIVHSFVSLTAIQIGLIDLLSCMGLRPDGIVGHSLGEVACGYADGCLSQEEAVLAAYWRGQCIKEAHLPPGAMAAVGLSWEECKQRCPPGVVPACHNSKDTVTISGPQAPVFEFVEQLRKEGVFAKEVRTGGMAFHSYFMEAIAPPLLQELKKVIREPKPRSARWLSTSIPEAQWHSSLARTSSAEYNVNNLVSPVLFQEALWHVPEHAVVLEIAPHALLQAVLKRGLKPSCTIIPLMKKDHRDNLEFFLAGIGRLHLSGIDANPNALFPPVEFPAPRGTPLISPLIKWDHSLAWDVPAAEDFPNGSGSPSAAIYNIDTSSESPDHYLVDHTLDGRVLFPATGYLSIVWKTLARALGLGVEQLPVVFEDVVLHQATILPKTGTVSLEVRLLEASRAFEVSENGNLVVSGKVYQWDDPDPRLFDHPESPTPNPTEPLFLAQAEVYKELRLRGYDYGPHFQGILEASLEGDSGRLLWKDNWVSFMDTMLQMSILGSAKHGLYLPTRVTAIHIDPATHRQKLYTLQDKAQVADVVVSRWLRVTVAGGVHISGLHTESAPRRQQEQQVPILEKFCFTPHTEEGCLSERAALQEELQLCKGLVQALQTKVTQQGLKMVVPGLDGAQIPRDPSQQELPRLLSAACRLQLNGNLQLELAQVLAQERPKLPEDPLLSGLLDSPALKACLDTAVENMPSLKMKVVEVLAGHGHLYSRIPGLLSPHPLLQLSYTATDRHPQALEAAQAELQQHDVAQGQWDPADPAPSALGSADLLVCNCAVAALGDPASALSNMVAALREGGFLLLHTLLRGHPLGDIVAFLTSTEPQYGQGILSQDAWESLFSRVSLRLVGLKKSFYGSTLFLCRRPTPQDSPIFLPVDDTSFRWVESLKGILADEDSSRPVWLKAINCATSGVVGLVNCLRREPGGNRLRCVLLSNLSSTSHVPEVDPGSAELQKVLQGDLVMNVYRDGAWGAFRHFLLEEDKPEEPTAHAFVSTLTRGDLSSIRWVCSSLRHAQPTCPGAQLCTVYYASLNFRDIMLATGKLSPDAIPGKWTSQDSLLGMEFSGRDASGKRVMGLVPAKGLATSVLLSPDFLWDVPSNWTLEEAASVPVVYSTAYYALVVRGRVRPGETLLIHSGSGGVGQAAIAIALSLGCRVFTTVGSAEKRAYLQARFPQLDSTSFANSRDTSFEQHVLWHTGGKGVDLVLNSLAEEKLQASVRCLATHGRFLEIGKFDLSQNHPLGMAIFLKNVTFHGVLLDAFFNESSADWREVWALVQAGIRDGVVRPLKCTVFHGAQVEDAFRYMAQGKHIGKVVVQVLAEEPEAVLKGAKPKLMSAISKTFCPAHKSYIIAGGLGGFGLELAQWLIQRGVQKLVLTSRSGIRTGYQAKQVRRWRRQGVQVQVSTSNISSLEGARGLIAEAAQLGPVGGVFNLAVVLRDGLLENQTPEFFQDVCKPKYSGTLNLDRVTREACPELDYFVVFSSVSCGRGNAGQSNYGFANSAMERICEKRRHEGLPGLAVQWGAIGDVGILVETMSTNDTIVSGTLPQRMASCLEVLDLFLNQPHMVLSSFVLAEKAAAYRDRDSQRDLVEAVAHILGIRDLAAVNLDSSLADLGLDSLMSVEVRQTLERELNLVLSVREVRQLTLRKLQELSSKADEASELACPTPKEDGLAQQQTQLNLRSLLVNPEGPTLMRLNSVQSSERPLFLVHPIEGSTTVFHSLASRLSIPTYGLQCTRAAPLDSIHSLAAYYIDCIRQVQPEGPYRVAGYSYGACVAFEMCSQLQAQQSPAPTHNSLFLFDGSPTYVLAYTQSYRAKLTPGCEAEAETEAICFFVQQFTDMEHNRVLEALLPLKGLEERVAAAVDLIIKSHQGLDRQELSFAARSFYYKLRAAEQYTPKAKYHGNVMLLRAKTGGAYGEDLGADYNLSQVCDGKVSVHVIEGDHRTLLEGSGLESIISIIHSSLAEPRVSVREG
Chain of Beta Lactamase (Q932Y6 whole entry): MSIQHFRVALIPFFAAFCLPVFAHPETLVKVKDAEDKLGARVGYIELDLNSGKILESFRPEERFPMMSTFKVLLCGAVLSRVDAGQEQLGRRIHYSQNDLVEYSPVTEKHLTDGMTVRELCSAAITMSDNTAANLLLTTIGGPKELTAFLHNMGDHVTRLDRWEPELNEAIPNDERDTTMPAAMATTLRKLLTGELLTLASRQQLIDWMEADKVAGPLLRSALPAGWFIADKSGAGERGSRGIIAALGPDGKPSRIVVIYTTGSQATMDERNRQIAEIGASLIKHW
Chain of E3 ubiquitin-protein ligase Mdm2 (Q00987 whole entry): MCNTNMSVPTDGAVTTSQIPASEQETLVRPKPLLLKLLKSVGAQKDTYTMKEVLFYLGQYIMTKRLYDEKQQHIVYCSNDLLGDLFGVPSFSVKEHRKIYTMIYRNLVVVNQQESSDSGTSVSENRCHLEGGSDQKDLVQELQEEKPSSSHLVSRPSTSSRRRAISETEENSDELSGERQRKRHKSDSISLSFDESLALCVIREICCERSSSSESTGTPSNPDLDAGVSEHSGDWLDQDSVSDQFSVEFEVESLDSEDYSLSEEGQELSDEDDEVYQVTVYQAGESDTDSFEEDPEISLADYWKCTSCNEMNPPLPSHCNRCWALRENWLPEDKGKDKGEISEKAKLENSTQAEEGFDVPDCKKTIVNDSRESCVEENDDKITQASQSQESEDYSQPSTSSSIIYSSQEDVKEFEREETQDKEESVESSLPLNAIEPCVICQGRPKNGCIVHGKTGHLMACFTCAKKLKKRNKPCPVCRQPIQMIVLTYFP
Chain of Beta-galactosidase (Q8VNN2 whole entry, the tested form may be a part): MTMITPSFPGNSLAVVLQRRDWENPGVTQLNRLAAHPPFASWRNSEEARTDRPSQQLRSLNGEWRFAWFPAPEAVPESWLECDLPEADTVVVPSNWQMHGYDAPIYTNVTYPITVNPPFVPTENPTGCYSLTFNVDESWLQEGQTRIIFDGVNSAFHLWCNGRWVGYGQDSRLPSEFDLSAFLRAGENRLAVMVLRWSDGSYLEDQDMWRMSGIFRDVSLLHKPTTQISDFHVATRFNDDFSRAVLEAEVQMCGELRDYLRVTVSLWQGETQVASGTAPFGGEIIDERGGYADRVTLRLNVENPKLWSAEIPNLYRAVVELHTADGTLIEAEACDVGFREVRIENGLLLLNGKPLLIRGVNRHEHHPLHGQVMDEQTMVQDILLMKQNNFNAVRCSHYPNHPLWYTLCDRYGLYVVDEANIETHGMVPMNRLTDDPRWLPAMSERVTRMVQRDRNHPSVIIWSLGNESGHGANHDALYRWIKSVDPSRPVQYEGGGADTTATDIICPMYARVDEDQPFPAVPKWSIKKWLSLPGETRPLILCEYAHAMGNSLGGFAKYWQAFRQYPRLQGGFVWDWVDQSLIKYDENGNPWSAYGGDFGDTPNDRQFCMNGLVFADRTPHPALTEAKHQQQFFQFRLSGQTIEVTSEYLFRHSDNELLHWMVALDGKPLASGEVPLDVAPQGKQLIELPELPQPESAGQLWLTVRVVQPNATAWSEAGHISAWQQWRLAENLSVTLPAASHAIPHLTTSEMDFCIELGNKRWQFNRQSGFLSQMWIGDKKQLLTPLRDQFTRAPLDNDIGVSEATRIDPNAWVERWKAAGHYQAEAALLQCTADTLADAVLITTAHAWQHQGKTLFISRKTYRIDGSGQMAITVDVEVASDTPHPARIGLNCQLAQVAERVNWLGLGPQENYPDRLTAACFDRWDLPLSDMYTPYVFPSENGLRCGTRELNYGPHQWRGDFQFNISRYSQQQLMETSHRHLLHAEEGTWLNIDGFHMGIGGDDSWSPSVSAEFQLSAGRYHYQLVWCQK
Chain of Melanocortin receptor 4 (P32245 whole entry): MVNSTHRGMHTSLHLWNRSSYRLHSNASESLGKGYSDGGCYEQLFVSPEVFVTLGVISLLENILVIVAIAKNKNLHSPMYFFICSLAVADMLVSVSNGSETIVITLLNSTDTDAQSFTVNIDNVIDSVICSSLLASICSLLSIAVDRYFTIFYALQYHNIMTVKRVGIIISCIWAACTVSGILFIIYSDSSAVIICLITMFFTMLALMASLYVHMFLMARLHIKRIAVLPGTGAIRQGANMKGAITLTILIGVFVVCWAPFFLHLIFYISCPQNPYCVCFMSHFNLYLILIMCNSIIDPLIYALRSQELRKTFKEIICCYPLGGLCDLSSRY

SMILES: COc1ccc(C(=O)C(CN2CCCC2)c2ccccc2)cc1 (stereo not drawn)
- IC50 [1]: 16.5 µM (active)
- EC50 [2]: 2.13 µM (active)
- EC50 [3]: 6.46 µM (active)
- AC50 [4]: 10.5 µM (active)
- EC50 [5]: 1.83 µM (active)
- EC50 [6]: 59.6 µM (active)
- EC50 [7]: 2.44 µM (active)
- CC50 [8]: 17.3 µM (active)
- EC50 [9]: 4.54 µM (active)
- AC50 [10]: > 35 µM (active)
- AC50 [11]: > 35 µM (active)
- CC50 [12]: 11.6 µM (active)
- AC50 [13]: 9.13 µM (active)
- CC50 [14]: 7.27 µM (active)

SMILES: COc1cccc(NC(=O)Nc2cccc(C(=O)O)c2)c1
- AC50 [15]: 0.915 µM (active)
- AC50 [16]: > 52 µM (inactive)
- AC50 [17]: 2.11 µM (active)
- AC50 [18]: 7.32 µM (active)
- AC50 [19]: 1.8 µM (active)
- AC50 [20]: 3.95 µM (active)
- AC50 [13]: 2.37 µM (active)
- AC50 [21]: 2.35 µM (active)
- IC50 [22]: 1.9 µM (active)
- IC50 [23]: > 80 µM (inactive)
- AC50 [24]: 3.29 µM (active)
- AC50 [25]: 1.56 µM (active)

SMILES: COc1ccc(NC(=O)/C(Cl)=C(/Cl)[S+]([O-])Cc2ccc(Cl)cc2)cn1 (stereo not drawn)
- IC50 [26]: > 64.6 µM (inactive)
- AC50 [27]: 3.48 µM (active)
- IC50 [28]: 7.83 µM (active)
- EC50 [29]: > 40 µM (inactive)
- IC50 [30]: 0.463 µM (active)
- IC50 [31]: 2.83 µM (active)
- EC50 [32]: 0.62 µM (active)
- AC50 [33]: 1.34 µM (active)
- AC50 [34]: 0.885 µM (active)
- IC50 [35]: 16.9 µM (active)
- IC50 [36]: 41.7 µM (inactive)
- IC50 [37]: 2.35 µM (active)
- IC50 [38]: 9.97 µM (active)
- CC50 [39]: 100 µM (active)
- IC50 [40]: 5.57 µM (active)

SMILES: O=C(Nc1nc2c(Br)cc(Br)cc2c(=O)s1)c1ccco1
- IC50 [41]: > 80 µM (inactive)
- IC50 [42]: > 80 µM (inactive)
- IC50 [43]: > 80 µM (inactive)
- IC50 [44]: 6.7 µM (active)

SMILES: COc1cccc(Nc2ncnc3sc(C)cc23)c1
- AC50 [45]: 3.81 µM (active)
- AC50 [46]: 5.47 µM (active)

SMILES: CC(C)CC1NC(=O)c2cc3ccccc3cc2-n2c1nc1cc(Cl)ccc1c2=O (stereo not drawn)
- AC50 [47]: 10.2 µM (active)
